As a reminder, the IC50 is the concentration at which inhibition is half-maximal.

For data set [1], the system named is catechol O-methyltransferase (COMT). Also on record: method as in PMID 15755652, doi:10.1007/s40495-018-0157-y. To be noted: cited from earlier work.
A short description of data set [2]: WST-1 cytotoxicity assay in HCT-8 cells. Format: cell-based, human. To be noted: human, HCT-8 cells (human ileocecal colorectal adenocarcinoma), read-out: Mean IC50 ± SEM, Cytotoxicity. How it is done: Compounds were tested for cytotoxicity in human ileocecal colorectal adenocarcinoma cells (HCT-8) (ATCC CCL-244; RRID:CVCL_2478) by using the cell proliferation reagent WST-1 (Roche) according to the manufacturer’s protocol. The WST-1 assay is a quantitative colorimetric assay for measurement of metabolically active cells. This assay is based on the reduction of the tetrazolium salt (WST-1) by viable cells. About 5 × 10^4 HCT-8 cells were seeded per well in 96-well plates and grown overnight in 200 μL of RPMI 1640 medium (without phenol red; Gibco) supplemented with 2.5 g/L of glucose, 1 mM sodium pyruvate, 1.5 g/L of sodium bicarbonate, 10% heat-inactivated FBS (Gibco), and 1× antibiotic-antimycotic (Gibco) at 37°C with 5% CO2 in a humidified incubator. Upon reaching 80 to 90% confluence, cells were treated with various concentrations of the test compounds for 24 h. Control wells received equivalent volumes of DMSO used in the reconstituted compounds. After 24 h of culture, 10 μL of the WST-1 reagent was added to each well, and the plates were incubated in the dark for 1 h at 37°C with 5% CO2. The plates were well agitated, and 150 μL of the medium from each well was transferred to a new clear flat-bottomed black 96-well plate (Corning). The absorbance was read at a test wavelength of 440 nm and a reference wavelength of 690 nm using a multimode microplate reader (Spectra Max iD3; Molecular Devices, USA). All of the reactions were prepared in triplicate. The dose-response curves were generated by nonlinear regression analysis with GraphPad PRISM software using control-normalized data to determine the half-maximal cytotoxicity (IC50) concentrations.
Background: Formazan colour is commonly taken as a measure of viable cells.

For data set [3], the system named is catechol O-methyltransferase (COMT). On the set-up: method as in PMID 15755652, doi:10.1007/s40495-018-0157-y. The conditions noted are these: cited from earlier work. This is another data set of the same source.

Read-outs that look alike come from different tables or passages of the source.

Turning to `O=c1c(O)cccc2cc(O)c(O)c(O)c12` [NSC35676, purpurogallin], the “inhibition of COMT catalytic activity” value in data set [1] and in data set [3] was “inhibit the catalytic activity” throughout. In addition, in data set [2], the IC50 at 24 h stood at 566 ± 55.9 µM.

For `CO[C@@]12[C@H](COC(N)=O)C3=C(C(=O)C(C)=C(N)C3=O)N1C[C@H]1[C@@H]2N1C` (stereo partly shown) [NSC56410], the 50% inhibitory concentration (IC50) at 24 h in data set [2] was 188 ± 4.19 µM.

(Values after PMC10269165 (Antimicrobial Agents and Chemotherapy, 2023).)
